Laboratory results published in patent US10688200B2, “Urea-based prostate specific membrane antigen (PSMA) inhibitors for imaging and therapy” (Five Eleven Pharma Inc., priority 2015, dated 2020).

Columns and labels:
[1] = test system: PSMA-expressing LNCaP cells; assay: Cell binding and internalization; type: cell-based, human; settings: 37° C.
Experimental: The cellular uptake and internalization kinetics of the [^68Ga]1a, [^68Ga]5a and [^68Ga]5b were determined using PSMA-expressing LNCaP cells. Furthermore, to be able to discriminate between total cellular activity (sum of membrane-associated and internalized activity) and internalized activity, all incubations were followed by a washing step with mild acid at 4° C. to remove specifically cell-surface bound radioligand by displacement.
LNCaP cells (in 6-well plates in triplicates) were incubated in RPMI-1640 medium with [^68Ga]1a, [^68Ga]5a or [^68Ga]5b for 0-2 h at 37° C. At the indicated time, the medium was removed and the cells were washed twice and then incubated with a mild acid buffer (50 mM glycine, 150 mM NaCl, pH 3.0) at 4° C. for 5 min. The supernatant (containing cell surface-bound radioactivity) was pooled and the cell pellet (containing internalized radioactivity) was collected with filter paper and then radioactivity in supernatant and cell pellet was counted on a gamma counter.
LNCaP cells were incubated with [^68Ga]1a, [^68Ga]5a and [^68Ga]5b for up to 2 h at 37° C. to determine whether the compound is internalized by endocytosis. The cells were then washed with a mild acid buffer to remove extracellularly bound compound.
Non specific binding (NSB) was evaluated by blocking with 20 μM PMPA. Specificity of cell uptake (SB) was calculated by subtracting the respective signals resulting from PMPA blocking. Values are expressed as % of applied radioactivity bound to 10^6 cells.

[2] = test system: LNCaP tumor bearing nude mice; assay: Biodistribution of [68Ga]labeled ligand in PSMA positive tumor bearing nude mice; type: in vivo, mouse; settings: 1 h post-injection, i.v., n = 3
Experimental: In a dish contained 5×10^6 cells of LNCaP in 50% Matrigel (Becton Dickinson, Heidelberg, Germany) were subcutaneously inoculated into the left shoulder of male 5- to 6-week-old CD-1 nu/nu mice (Charles River Laboratories). The tumors were allowed to grow for 8 weeks until approximately 0.5 cm^3 in size.
The ^68Ga-radiolabeled compounds were injected via tail vein (25 μCi per mouse; 0.1-0.2 nmol). At 1 h after injection, the animals were sacrificed. Organs of interest were dissected and weighed. The radioactivity was measured with a gamma counter and calculated as % ID/g.

[3] = Biodistribution of radiotracers in normal mice; type: in vivo, mouse; settings: normal male mice
In short: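 Male CD-1 mice received 35 μCi [^68Ga] radiotracer (0.2 nmole ligand) by tail vein. Four mice per time point sacrificed at 2, 30, 60 and 120 min p.i.; organs and blood weighed and gamma counted. %ID/g calculated against a standard dilution of the dose, decay-corrected.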

[4] = test system: LNCaP (left shoulder) and PC-3 (right shoulder) tumor bearing nude mouse; assay: Small animal PET imaging with [68Ga]1a and [68Ga]4a; type: in vivo; settings: 60 to 75 min after i.v. injection
Experimental: Male athymic mice (CD-1 nude, 5-6 weeks old) were obtained from Charles River, and were allowed to acclimatize at the vivarium for 1 week prior to implanting tumors. Mice were provided with food and water ad libitum. LNCaP tumors were induced on the left shoulder by sub-cutaneous (s.c.) injection of 5.0×10^6 cells in a 200 μL cell suspension of a 1:1 v/v mixture of media with reconstituted basement membrane (BD Matrigel™, Collaborative Biomedical Products Inc., Bedford, Mass.). Similarly, PC-3 tumors were induced on the right shoulder by s.c. injection of 2.0×10^6 cells. Palpable LNCaP tumors developed after a period of 4-5 weeks.
Dynamic small animal PET (APET) imaging studies of LNCaP (left shoulder) and PC-3 (right shoulder) tumor bearing nude mouse were performed with [^68Ga]1a and [^68Ga]4a. PET imaging studies were performed on a Phillips Mosaic small animal PET scanner, which has an imaging field of view of 11.5 cm. Under isoflurane anesthesia (1-2%, 1 L/min oxygen), the tumor-bearing nude mouse was injected with 0.5 mCi activity by an intravenous injection into the lateral tail vein. Data acquisition began at 30 min after the injection. Dynamic scans were conducted over a period of 1 h (5 min/frame; image voxel size 0.5 mm^3). Mouse was visually monitored for breathing, and a heating pad was used to maintain body temperature throughout the entire procedure. Images were reconstructed and a region of interest (ROI) analysis was performed using AMIDE software (http://amide.sourceforge.net/).
Representative animal PET images of LNCaP xenograft mice between 60 to 75 min after i.v. injection of [^68Ga]1a, and [^68Ga]4a are shown in FIGS. 3A-3F. […] FIGS. 3A-3F show sagittal, transaxial and coronal sections of APET images of nude mouse with LNCaP tumor at left shoulder and PC-3 tumor at right shoulder between 60 to 75 min post i.v. injection of [^68Ga]1a (FIGS. 3A-3C) and [^68Ga]4a (FIG. 3D-3F).

For `O=C(O)CCc1ccc2c(c1)C[N+]13CC[N+]45CC(=O)[O][68Ga-3]14([O]C(=O)C3)([O]2)[O]c1ccc(CCC(=O)NCCCCCC(=O)NCCCC[C@H](NC(=O)N[C@@H](CCC(=O)O)C(=O)O)C(=O)O)cc1C5` (stereo partly shown) [[^68Ga]1a, reference compound], the “Cell surface binding activity” value ([1]; 5 min) was 3.21 ± 0.74 % ID/10^6 cells, the Internalized activity ([1]; 5 min) was 0.49 ± 0.21 % ID/10^6 cells and the “Cell surface binding activity” value ([1]; 15 min) was 3.61 ± 0.47 % ID/10^6 cells. The Internalized activity ([1]; 15 min) was 2.51 ± 0.19 % ID/10^6 cells, the “Cell surface binding activity” value ([1]; 30 min) was 2.95 ± 0.36 % ID/10^6 cells and the Internalized activity ([1]; 30 min) was 4.30 ± 0.72 % ID/10^6 cells. The “Cell surface binding activity” value ([1]; 60 min) was 3.22 ± 0.81 % ID/10^6 cells, the Internalized activity ([1]; 60 min) was 7.43 ± 1.27 % ID/10^6 cells and the “Cell surface binding activity” value ([1]; 90 min) was 3.41 ± 0.17 % ID/10^6 cells. For the same molecule, the Internalized activity ([1]; 90 min) was 8.34 ± 0.16 % ID/10^6 cells, the “Cell surface binding activity” value ([1]; 120 min) was 3.35 ± 0.04 % ID/10^6 cells and the Internalized activity ([1]; 120 min) was 8.82 ± 0.45 % ID/10^6 cells. For the same molecule, the “Organ distribution: Blood” value [2] was 0.37 ± 0.07 % dose/g, the “Organ distribution: Bone” value [2] was 0.21 ± 0.05 % dose/g and the “Organ distribution: Brain” value [2] was 0.04 ± 0.01 % dose/g. The “Organ distribution: Heart” value [2] was 0.59 ± 0.14 % dose/g, the “Organ distribution: Kidney” value [2] was 176 ± 5.66 % dose/g and the “Organ distribution: LNCaP tumor” value [2] was 10.07 ± 3.32 % dose/g. For the same molecule, the “Organ distribution: Liver” value [2] was 0.62 ± 0.24 % dose/g, the “Organ distribution: Lung” value [2] was 2.44 ± 1.03 % dose/g and the “Organ distribution: Muscle” value [2] was 0.58 ± 0.24 % dose/g. For the same molecule, the “Organ distribution: Pancreas” value [2] was 1.38 ± 0.63 % dose/g, the “Organ distribution: Skin” value [2] was 1.14 ± 0.58 % dose/g and the “Organ distribution: Spleen” value [2] was 18.48 ± 3.02 % dose/g. The “Biodistribution: Blood” value ([3]; 2 min) was 7.75 ± 1.60 % dose/g, the “Biodistribution: Bone” value ([3]; 2 min) was 1.77 ± 0.16 % dose/g and the “Biodistribution: Brain” value ([3]; 2 min) was 0.25 ± 0.02 % dose/g. The “Biodistribution: Heart” value ([3]; 2 min) was 3.32 ± 0.51 % dose/g, the “Biodistribution: Kidney” value ([3]; 2 min) was 40.5 ± 7.81 % dose/g and the “Biodistribution: Liver” value ([3]; 2 min) was 11.0 ± 0.99 % dose/g. For the same molecule, the “Biodistribution: Lung” value ([3]; 2 min) was 5.29 ± 0.82 % dose/g, the “Biodistribution: Muscle” value ([3]; 2 min) was 1.68 ± 0.20 % dose/g and the “Biodistribution: Pancreas” value ([3]; 2 min) was 1.91 ± 0.17 % dose/g. The “Biodistribution: Skin” value ([3]; 2 min) was 2.42 ± 0.38 % dose/g, the “Biodistribution: Spleen” value ([3]; 2 min) was 7.46 ± 0.84 % dose/g and the “Biodistribution: Blood” value ([3]; 30 min) was 0.54 ± 0.08 % dose/g. The “Biodistribution: Bone” value ([3]; 30 min) was 0.24 ± 0.08 % dose/g, the “Biodistribution: Brain” value ([3]; 30 min) was 0.03 ± 0.00 % dose/g and the “Biodistribution: Heart” value ([3]; 30 min) was 0.27 ± 0.09 % dose/g. For the same molecule, the “Biodistribution: Kidney” value ([3]; 30 min) was 108 ± 23.7 % dose/g, the “Biodistribution: Liver” value ([3]; 30 min) was 0.35 ± 0.03 % dose/g and the “Biodistribution: Lung” value ([3]; 30 min) was 1.14 ± 0.17 % dose/g. For the same molecule, the “Biodistribution: Muscle” value ([3]; 30 min) was 0.32 ± 0.01 % dose/g, the “Biodistribution: Pancreas” value ([3]; 30 min) was 0.76 ± 0.11 % dose/g and the “Biodistribution: Skin” value ([3]; 30 min) was 0.95 ± 0.20 % dose/g. The “Biodistribution: Spleen” value ([3]; 30 min) was 2.95 ± 0.36 % dose/g, the “Biodistribution: Blood” value ([3]; 60 min) was 0.33 ± 0.07 % dose/g and the “Biodistribution: Bone” value ([3]; 60 min) was 0.23 ± 0.02 % dose/g. The “Biodistribution: Brain” value ([3]; 60 min) was 0.02 ± 0.00 % dose/g, the “Biodistribution: Heart” value ([3]; 60 min) was 0.34 ± 0.07 % dose/g and the “Biodistribution: Kidney” value ([3]; 60 min) was 91.1 ± 11.6 % dose/g. The “Biodistribution: Liver” value ([3]; 60 min) was 6.09 ± 0.86 % dose/g, the “Biodistribution: Lung” value ([3]; 60 min) was 0.93 ± 0.14 % dose/g and the “Biodistribution: Muscle” value ([3]; 60 min) was 0.19 ± 0.02 % dose/g. For the same molecule, the “Biodistribution: Pancreas” value ([3]; 60 min) was 0.59 ± 0.10 % dose/g, the “Biodistribution: Skin” value ([3]; 60 min) was 0.44 ± 0.05 % dose/g and the “Biodistribution: Spleen” value ([3]; 60 min) was 4.39 ± 0.42 % dose/g. The “Biodistribution: Blood” value ([3]; 120 min) was 0.12 ± 0.03 % dose/g, the “Biodistribution: Bone” value ([3]; 120 min) was 0.21 ± 0.05 % dose/g and the “Biodistribution: Brain” value ([3]; 120 min) was 0.01 ± 0.00 % dose/g. For the same molecule, the “Biodistribution: Heart” value ([3]; 120 min) was 0.23 ± 0.19 % dose/g, the “Biodistribution: Kidney” value ([3]; 120 min) was 83.9 ± 13.6 % dose/g and the “Biodistribution: Liver” value ([3]; 120 min) was 2.56 ± 0.80 % dose/g. The “Biodistribution: Lung” value ([3]; 120 min) was 0.77 ± 0.17 % dose/g, the “Biodistribution: Muscle” value ([3]; 120 min) was 0.12 ± 0.03 % dose/g and the “Biodistribution: Pancreas” value ([3]; 120 min) was 0.64 ± 0.23 % dose/g. For the same molecule, the “Biodistribution: Skin” value ([3]; 120 min) was 0.31 ± 0.12 % dose/g, the “Biodistribution: Spleen” value ([3]; 120 min) was 5.07 ± 2.68 % dose/g and the “LNCaP tumor visualization in PET images, in words” value [4] was “clearly visualized”. The “PC-3 (PSMA negative) tumor uptake in PET images, in words” value [4] was “did not show any uptakes”.
